Test: Stability profile at 25° C. in buffered aqueous solutions
Format: physicochemical
Settings: for Degradation Rate Constant (k): 25° C.
From the text: While not intending to be bound in any way by theory, the base-catalyzed degradation is unexpected because the commercial proton pump inhibitors are stabilized in aqueous solutions by adjusting the solution to high pH. […] This should allow bolus injection of the compounds disclosed herein as opposed to the slow infusion of the drug currently in practice because the present compositions will not have the irritation associated with the high pH traditionally used with proton pump inhibitors. This should also allow greater flexibility in co-administering these compounds with drugs which are unstable or otherwise incompatible with high pH.

shelf-life (in a neutral solution): over forty hours | Degradation Rate Constant (k) (pH 1, 0.1 M HCl): 0.194 h⁻¹ | Degradation Rate Constant (k) (pH 3, Citric Acid (0.1 M)/Na2HPO4 (0.2 M)): 0.009 h⁻¹ | Degradation Rate Constant (k) (pH 5, Citric Acid (0.1 M)/Na2HPO4 (0.2 M)): 0.008 h⁻¹ | Degradation Rate Constant (k) (pH 7, sodium phosphate (0.1-0.2 M)): 0.002 h⁻¹ | Degradation Rate Constant (k) (pH 7.4, sodium phosphate (0.1-0.2 M)): 0.002 h⁻¹ | Degradation Rate Constant (k) (pH 9, sodium phosphate (0.1-0.2 M)): 0.03 h⁻¹ | Degradation Rate Constant (k) (pH 10, sodium phosphate (0.1-0.2 M)): 0.298 h⁻¹
SMILES: COc1ccc2c(c1)nc([S+]([O-])Cc1ncc(C)c(OC)c1C)n2S(=O)(=O)c1ccc(OCC(=O)O)cc1 (centres unmarked) [Compound 1]
